According to patent publication US20140303322A1, “ANTIMICROBIAL AND BACTERIOSTATIC-MODIFIED POLYMERS FOR CELLULOSE FIBRES” (priority 2012, published 2014):
Marks after values point to notes of the source that are not given here.

Experiments:
E. coli ATCC 11229 = test: Shaking flask method, antibiotics/CPβCD complexes on cellulose fibres; assay type: cell-based, Escherichia coli; details: CPβCD complex
[1] = Water solubility of triclosan and butylparaben (UV spectrophotometer); assay type: physicochemical; details: FIGS. 13 and 14; complex with CPβCD
Description: The triclosan/CPβCD or butylparaben/CPβCD complex can be prepared by adopting the procedures described by Arias et al. (1997)^7 and Mura et al. (2002)^8. […] The solubility of triclosan or butylparaben can be determined by a UV spectrophotometer at wavelength of 282 nm and 256 nm, respectively.

[2] = concentration 0.03 % wt, contacting time 1 hour
[3] = concentration 0.06 % wt, contacting time 1 hour
[4] = concentration 0.125 % wt, contacting time 1 hour
[5] = concentration 0.25 % wt, contacting time 1 hour
[6] = concentration 0.5 % wt, contacting time 1 hour
[7] = concentration 1 % wt, contacting time 1 hour
[8] = contacting time 0.5 min, antibiotic 0.5% wt based on cellulose fibres
[9] = contacting time 1 min, antibiotic 0.5% wt based on cellulose fibres
[10] = contacting time 3 min, antibiotic 0.5% wt based on cellulose fibres
[11] = contacting time 10 min, antibiotic 0.5% wt based on cellulose fibres
[12] = contacting time 30 min, antibiotic 0.5% wt based on cellulose fibres
[13] = contacting time 60 min, antibiotic 0.5% wt based on cellulose fibres

| SMILES | Growth inhibition (%) (E. coli ATCC 11229; [2]) | Growth inhibition (%) (E. coli ATCC 11229; [3]) | Growth inhibition (%) (E. coli ATCC 11229; [4]) | Growth inhibition (%) (E. coli ATCC 11229; [5]) | Growth inhibition (%) (E. coli ATCC 11229; [6]) | Growth inhibition (%) (E. coli ATCC 11229; [7]) | Growth inhibition (%) (E. coli ATCC 11229; [8]) | Growth inhibition (%) (E. coli ATCC 11229; [9]) | Growth inhibition (%) (E. coli ATCC 11229; [10]) | Growth inhibition (%) (E. coli ATCC 11229; [11]) | Growth inhibition (%) (E. coli ATCC 11229; [12]) | Growth inhibition (%) (E. coli ATCC 11229; [13]) | water solubility as a function of CPβCD content [1] |
| --- | --- | --- | --- | --- | --- | --- | --- | --- | --- | --- | --- | --- | --- |
| CCCCOC(=O)c1ccc(O)cc1 [Butylparaben, butylparaben] | 4.54 | 9.09 | 54.6 | 81.8 | 99.9 | 100 | 50.0 | 61.9 | 95.8 | 100**** % | 100 | 100 | linear increased with the CPβCD content |
| Oc1cc(Cl)ccc1Oc1ccc(Cl)cc1Cl [Triclosan] | 23.2 | 50.2 | 68.1 | 87.1 | 99.7 | 100 | 24.6 | 37.7 | 61.0 | 95.8% | 99.6 | 100 | linear increased with the CPβCD content |
